According to patent US8927063B2, “Compositions for the treatment of timber and other wood substrates” (TimTechChem International Limited, priority 2008, dated 2015):

What was measured:
[1] = Example 3: solubility and formulation stability in ester solvents
Procedure: Further formulation tests were carried out to ascertain if the fungicide IPBC (iodo propyl butyl carbamate, CAS No 55406-53-6) was soluble in ester compounds of formula (I).

[2] = Example 2: solvent evaporation rate from treated wood pieces (daily re-weighing); settings: 17-22 °C, no external airflow
Procedure: The wood pieces were placed on plastic bearers allowing good access of air to all surfaces and situated in a dedicated room with no external airflow. Air temperatures in the room were mainly in the range 17-22° C.
The wood pieces were re-weighed daily to determine weight loss rates for the various solvents.

| SMILES | solubility ([1]; in butyl ethanoate) | solubility ([1]; in propyl ethanoate) | % Solvent Remaining in Wood ([2]; After 24 h) [%] | % Solvent Remaining in Wood ([2]; After 48 h) [%] | % Solvent Remaining in Wood ([2]; After 72 h) [%] | solubilisation in the esters of the invention [1] |
| --- | --- | --- | --- | --- | --- | --- |
| N#Cc1c(Cl)c(Cl)c(Cl)c(C#N)c1Cl [chlorothalonil] | less than 1% | less than 1% | – | – | – | – |
| CCOC(C)=O [ethyl ethanoate] | – | – | 3.8 | 0 | 0 | – |
| CCCCOC(C)=O [n-butyl ethanoate] | – | – | 6.9 | 3.1 | 0.8 | – |
| CC(C)(C)C(O)(CCc1ccc(Cl)cc1)Cn1cncn1 (stereo not drawn) [tebuconazole] | – | – | – | – | – | good solubilisation |
